According to patent publication US20110111976A1, “MICRORNA BIOMARKERS OF TISSUE INJURY” (priority 2008, published 2011):
Where “and” joins values, the source holds several entries; their conditions need not be identical. Equal entries are not always repeated.

Key:
[1] = test system: Sprague-Dawley rats; experiment: Pooled sample study: miR-122 in blood plasma of toxicant-treated rats by qPCR; assay type: in vivo; details: pooled rat plasma (5 samples), cerivastatin 1.0 mg/kg/day oral Day 14, CBrCl3 0.1 ml/kg oral Days 2 & 4, TMPD 6 mg/kg bid s.c. Day 3; for miR-122 Copies / miR-122 Ct Mean: 250 ng total RNA input
Protocol: (§1) To explore the feasibility of detecting miRNA tissue injury biomarkers in plasma, a pilot study was performed in which pooled blood plasma samples from rat toxicology studies were analyzed using a qPCR-based assay (Raymond et at, 2005, RNA 11:1737; WO 2006/081282). The miRNAs miR-122 and miR-133 were chosen for quantification because they are extremely abundant and specific to liver and muscle, respectively (FIG. 1). Stored plasma samples from rats that had previously been treated with a liver damaging agent trichlorobromomethane (CBrCl3) or with one of two muscle damaging agents 2,3,5,6-tetramethyl-p phenylenediamine (TMPD) or cerivastatin) were assayed form miRNA levels using qPCR.
(§2) Animals Male and female Sprague-Dawley rats were obtained from Charles River Laboratories, Inc. (Raleigh, N.C.). The rats were approximately seven to eight weeks of age and weighed from 125 to 325 grams at the start of the study. The animals were acclimated for approximately one week and randomized into treatment and control groups. During the toxicity studies targeting liver, the animals were maintained on a caloric-restricted diet, and fasted overnight prior to necropsy. Doses were different for each model compound tested and were calculated based on animal body weight. For the compounds, routes of administration, dose groups, and time points, see the below compound section.
(§3) Skeletal Muscle Toxicant • 2,3,5,6-tetramethyl-p phenylenediamine (TMPD) • Doses: 6 mg/kg bid • Dosing: 0.9% NaCl by subcutaneous injection • Animals: Sprague Dawley Male Rats • Time Points Day 3, TMPD Plasma (Day 3) and Controls (5 samples, 100 ul each pooled=500 ul total).
(§4) Liver Toxicant • Trichlorbromomethane (CCl3Br) • Doses: 0.1 ml/kg • Dosing: 100% liquid paraffin by oral gavage • Animals: Sprague Dawley Male Rats • Time Point: Day 2, 4 CCl3Br Plasma (Days 2 & 4) and Controls (5 samples, 100 ul each pooled=500 ul total)
(§5) Liver and Muscle Toxicant • Cerivastatin • Doses: 1.0 mg/kg/day • Dosing: 0.5% methylcellulose by oral gavage • Animals: Sprague Dawley Female Rats • Time Point Day 14 Cerivastatin Plasma (Day 14) and Controls (5 samples, 100 ul each pooled=500 μl total)
(§6) Plasma Samples All plasma samples were collected in EDTA tubes at final necropsy from the vena cava. Samples were inverted several times, and centrifuged for 20 minutes at 2,900 RPM at 4° C. Plasma samples were removed and stored at −70° C. Pooled blood plasma samples from rat toxicology studies were analyzed using a qPCR-based assay (Raymond et al, 2005, RNA 11:1737; WO 2006/081282). Control slope and intercept values for miR-122 and miR-133 were calculated from a concentration series of each microRNA added to total yeast RNA and then analyzed using the qPCR assay for each miRNA. The slope and intercept values from the standard curve were used to calculate the amount of each respective miRNA in each sample expressed as the number of miRNA copies per 20 ng of total RNA in each sample. Cycle threshold values (Ct) for each sample were converted to miRNA copy numbers by comparison to standard curves generated using single stranded mature miRNAs and are expressed as copies/20 pg input RNA (approximately equivalent to copies/cell).

[2] = test system: Sprague-Dawley rats; experiment: Pooled sample study: miR-133 in blood plasma of toxicant-treated rats by qPCR; assay type: in vivo; details: pooled rat plasma (5 samples), cerivastatin 1.0 mg/kg/day oral Day 14, CBrCl3 0.1 ml/kg oral Days 2 & 4, TMPD 6 mg/kg bid s.c. Day 3; for miR-133 Copies / miR-133 Ct Mean: 250 ng total RNA input
Protocol: as §1, §2, §3, §4, §5, §6

[3] = test system: Sprague-Dawley rats; experiment: Individual sample study: miR-133 in blood plasma of toxicant-treated rats by qPCR; assay type: in vivo, rat; details: individual male rats
Protocol: (§7) To follow up on the initial results shown in Example 2, blood samples from 44 individual rats that had been treated with varying doses of CBrCl3, CCl4 (another liver toxicant), or TMPD were evaluated using qPCR of miR-122 and miR-133. In addition, data from histopathology and a panel of standard biomarkers (ALT, AST, CK, skTnI, etc.) were also available for these same individual rats and were used to compare the results from microRNA assays with the standard histopathology and protein biomarkers.
as §2
(§8) Skeletal Muscle Toxicant • 2,3,5,6-tetramethyl-p phenylenediamine (TMPD) • Doses: 2, 4 mg/kg bid • Dosing: 0.9% NaCl by subcutaneous injection • Animals: Sprague Dawley Male Rats • Time Points: TMPD Plasma (Day 2) and Controls (5 samples per group, […] pooled=500 μl total).
(§9) Liver Toxicant • Trichlorobromomethane (CCl3Br) • Doses: 0.03, 0.1 ml/kg • Dosing: 100% liquid paraffin by oral gavage • Animals: Sprague Dawley Male Rats • Time Point: CCl3Br Plasma (Days 2 & 4) and Controls (4 controls, 3 samples per group, 100 μl each) • Carbon Tetrachloride (CCl4) • Doses: 0.03, 0.1, 0.3 ml/kg • Dosing: 100% liquid paraffin by oral gavage • Animals: Sprague Dawley Male Rats • Time Point: CCl4 Plasma (Days 2) and Controls (4 samples per group, 100 μl each)
as §6, with “are expressed in Table 4 as copies/20” for “are expressed as copies/20”

[4] = test system: Sprague-Dawley rats; experiment: Individual sample study: miR-122 in blood plasma of toxicant-treated rats by qPCR; assay type: in vivo, rat; details: individual male rats
Protocol: as §7, §2, §8, §9
as §6, with “are expressed in Table 4 as copies/20” for “are expressed as copies/20”

[5] = test system: Sprague-Dawley rats; experiment: Liver histopathology scores of toxicant-treated rats; assay type: in vivo, rat; parameters: key to Liver Histopathology Scores: Vacuolation / Liver Histopathology Scores: Necrosis / Liver Histopathology Scores: Degeneration / Liver Histopathology Scores: Inflammation / Liver Histopathology Scores: Mitotic Index: 1 = very slight; 2 = slight or small; 3 = moderate; 4 = marked; 5 = severe tissue injury
Protocol: as §7, §2, §9

[6] = test system: Sprague-Dawley rats; experiment: Clinical chemistry (AST, ALT, CK) in blood plasma of toxicant-treated rats; assay type: in vivo, rat; details: individual male rats
Protocol: as §7, §2, §8, §9

[7] = CCl4 0.03 ml/kg oral gavage, Day 2, plasma
[8] = CCl4 0.1 mL/kg oral gavage, Day 2, plasma
[9] = CCl4 0.3 mL/kg oral gavage, Day 2, plasma
[10] = CCl4 0.03 ml/kg oral gavage, Day 2, individual male rats
[11] = CCl4 0.1 mL/kg oral gavage, Day 2, individual male rats
[12] = CCl4 0.3 mL/kg oral gavage, Day 2, individual male rats
[13] = CBrCl3 0.03 mL/kg oral gavage, Day 2, plasma
[14] = CBrCl3 0.03 mL/kg oral gavage, Day 4, plasma
[15] = CBrCl3 0.1 mL/kg oral gavage, Day 4, plasma
[16] = CBrCl3 0.03 mL/kg oral gavage, Day 2, individual male rats
[17] = CBrCl3 0.03 mL/kg oral gavage, Day 4, individual male rats
[18] = CBrCl3 0.1 mL/kg oral gavage, Day 4, individual male rats

COCc1c(C(C)C)nc(C(C)C)c(/C=C/[C@@H](O)C[C@@H](O)CC(=O)O)c1-c1ccc(F)cc1 [Cerivastatin]
miR-122 Copies [1]: 353217
miR-122 Ct Mean [1]: 24.2231
miR-122 Copies/20 pg [1]: 28.3 Copies/20 pg
miR-133 Copies [2]: 7279643
miR-133 Ct Mean [2]: 23.1065
miR-133 Copies/20 pg [2]: 582.4 Copies/20 pg

ClC(Cl)(Cl)Cl [CCl4, Carbon Tetrachloride]
miR-133 [3, 7]: 0.3 copies/20 pg input RNA (2×) and 0.5 copies/20 pg input RNA and 1.0 copies/20 pg input RNA
miR-133 [3, 8]: 0.3 copies/20 pg input RNA (2×) and 0.4 copies/20 pg input RNA (2×)
miR-133 [3, 9]: 1.4 copies/20 pg input RNA and 0.4 copies/20 pg input RNA and 0.3 copies/20 pg input RNA and 0.1 copies/20 pg input RNA
miR-122 [4, 7]: 2.4 copies/20 pg input RNA and 5.5 copies/20 pg input RNA and 8.7 copies/20 pg input RNA and 10.0 copies/20 pg input RNA
miR-122 [4, 8]: 7.9 copies/20 pg input RNA and 107.4 copies/20 pg input RNA and 14.3 copies/20 pg input RNA and 119.4 copies/20 pg input RNA
miR-122 [4, 9]: 1563.6 copies/20 pg input RNA and 194.3 copies/20 pg input RNA and 191.4 copies/20 pg input RNA and 164.6 copies/20 pg input RNA
Liver Histopathology Scores: Degeneration [5, 10]: 0
Liver Histopathology Scores: Inflammation [5, 10]: 0
Liver Histopathology Scores: Necrosis [5, 10]: 0
Liver Histopathology Scores: Vacuolation [5, 10]: 0
Liver Histopathology Scores: Degeneration [5, 11]: 0 (2×) and 1 (2×)
Liver Histopathology Scores: Inflammation [5, 11]: 0 (2×) and 2 and 1
Liver Histopathology Scores: Necrosis [5, 11]: 0 (2×) and 1 (2×)
Liver Histopathology Scores: Vacuolation [5, 11]: 0 and 1 (3×)
Liver Histopathology Scores: Degeneration [5, 12]: 2
Liver Histopathology Scores: Inflammation [5, 12]: 2 (3×) and 1
Liver Histopathology Scores: Necrosis [5, 12]: 1
Liver Histopathology Scores: Vacuolation [5, 12]: 0
ALT [6, 7]: 25 Unit (3×) and 20 Unit
AST [6, 7]: 92 Unit and 88 Unit and 76 Unit and 84 Unit
ALT [6, 8]: 25 Unit and 40 Unit (2×) and 41 Unit
AST [6, 8]: 96 Unit and 116 Unit and 102 Unit and 126 Unit
ALT [6, 9]: 87 Unit and 77 Unit and 62 Unit and 56 Unit
AST [6, 9]: 345 Unit and 216 Unit and 157 Unit and 225 Unit

ClC(Cl)(Cl)Br [CBrCl3, trichlorobromomethane]
miR-133 [3, 13]: 0.7 copies/20 pg input RNA and 0.2 copies/20 pg input RNA and 0.4 copies/20 pg input RNA
miR-133 [3, 14]: 1.2 copies/20 pg input RNA and 2.0 copies/20 pg input RNA and 0.3 copies/20 pg input RNA
miR-133 [3, 15]: 0.8 copies/20 pg input RNA and 0.4 copies/20 pg input RNA (2×)
miR-122 Copies [1]: 8.8E+08
miR-122 Ct Mean [1]: 12.6961
miR-122 Copies/20 pg [1]: 70674.9 Copies/20 pg
miR-122 [4, 13]: 860.8 copies/20 pg input RNA and 45.1 copies/20 pg input RNA and 47.3 copies/20 pg input RNA
miR-122 [4, 14]: 90.2 copies/20 pg input RNA and 56.2 copies/20 pg input RNA and 20.5 copies/20 pg input RNA
miR-122 [4, 15]: 4049.2 copies/20 pg input RNA and 335.5 copies/20 pg input RNA and 304.0 copies/20 pg input RNA
Liver Histopathology Scores: Degeneration [5, 16]: 2 and 0 and 1
Liver Histopathology Scores: Inflammation [5, 16]: 1 (2×) and 0
Liver Histopathology Scores: Mitotic Index [5, 16]: 0
Liver Histopathology Scores: Necrosis [5, 16]: 1 and 0 (2×)
Liver Histopathology Scores: Degeneration [5, 17]: 0 and 1 (2×)
Liver Histopathology Scores: Inflammation [5, 17]: 0
Liver Histopathology Scores: Mitotic Index [5, 17]: 0
Liver Histopathology Scores: Necrosis [5, 17]: 0
Liver Histopathology Scores: Degeneration [5, 18]: 2 and 1 (2×)
Liver Histopathology Scores: Inflammation [5, 18]: 2
Liver Histopathology Scores: Mitotic Index [5, 18]: 1 (2×) and 2
Liver Histopathology Scores: Necrosis [5, 18]: 3 and 1 (2×)
miR-133 Copies [2]: 85617.9
miR-133 Ct Mean [2]: 29.6296
miR-133 Copies/20 pg [2]: 6.8 Copies/20 pg
ALT [6, 13]: 142 Unit and 36 Unit (2×)
AST [6, 13]: 366 Unit and 83 Unit and 93 Unit
ALT [6, 14]: 34 Unit and 43 Unit and 32 Unit
AST [6, 14]: 138 Unit and 118 Unit and 108 Unit
ALT [6, 15]: 1388 Unit and 191 Unit and 223 Unit
AST [6, 15]: 1543 Unit and 370 Unit and 519 Unit
